The supplement of paper PMC10307832

What was measured:
Assay in all cases: relative viability (nuclei count vs DMSO), 5 days (fraction); higher = more cells survive
Trametinib + Luminespib = compound: CC(=O)Nc1cccc(-n2c(=O)n(C3CC3)c(=O)c3c(Nc4ccc(I)cc4F)n(C)c(=O)c(C)c32)c1 [Trametinib] + CCNC(=O)c1noc(-c2cc(C(C)C)c(O)cc2O)c1-c1ccc(CN2CCOCC2)cc1 [Luminespib] (partner 0.01 µM)
Procedure, shortened: (§1)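 Lung cancer cell lines were pin-tool dosed in 1536-well plates on the day after seeding, with either a lone drug or a fixed anchor-drug dose plus five library-drug doses (not always all listed) in √10 steps. Nuclei were counted on 4× images after 5 days. Relative viability is the ratio of treated-well to vehicle-well nuclei counts, with each value a median of duplicate plates.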

Trametinib + OSI-027 = compound: CC(=O)Nc1cccc(-n2c(=O)n(C3CC3)c(=O)c3c(Nc4ccc(I)cc4F)n(C)c(=O)c(C)c32)c1 [Trametinib] + COc1cccc2cc(-c3nc([C@H]4CC[C@H](C(=O)O)CC4)n4ncnc(N)c34)[nH]c12 [OSI-027] (partner 0.5 µM)
Procedure, shortened: as §1

[1] = compound: CN1C=C(C2=CC=CC=C21)/C=C\3/C4=C(C=CC=N4)NC3=O + C[C@]1(O)C[C@@H](c2nc(-c3ccc4ccc(-c5ccccc5)nc4c3)c3c(N)nccn32)C1 [Linsitinib] (partner 1 µM)
Procedure, shortened: as §1

[2] = compound: CN1C=C(C2=CC=CC=C21)/C=C\3/C4=C(C=CC=N4)NC3=O + Nc1ncn([C@H]2C[C@H](O)[C@@H](CO)O2)c(=O)n1 [Decitabine] (partner 2 µM)
Procedure, shortened: as §1

Cell Line	relative viability (Trametinib + Luminespib; first compound 0.0025 µM)	relative viability (Trametinib + Luminespib; first compound 0.007906 µM)	relative viability (Trametinib + Luminespib; first compound 0.025 µM)	relative viability (Trametinib + Luminespib; first compound 0.07906 µM)	relative viability (Trametinib + Luminespib; first compound 0.25 µM)	relative viability (Trametinib + OSI-027; first compound 0.0025 µM)	relative viability (Trametinib + OSI-027; first compound 0.007906 µM)	relative viability (Trametinib + OSI-027; first compound 0.025 µM)	relative viability (Trametinib + OSI-027; first compound 0.07906 µM)	relative viability (Trametinib + OSI-027; first compound 0.25 µM)	relative viability ([1]; first compound 0.02 µM)	relative viability ([1]; first compound 0.06325 µM)	relative viability ([1]; first compound 0.2 µM)	relative viability ([1]; first compound 0.6325 µM)	relative viability ([1]; first compound 2 µM)	relative viability ([2]; first compound 0.02 µM)	relative viability ([2]; first compound 0.06325 µM)	relative viability ([2]; first compound 0.2 µM)	relative viability ([2]; first compound 0.6325 µM)	relative viability ([2]; first compound 2 µM)
NCI-H2023	0.582	0.403	0.51	0.575	0.197	0.344	0.297	0.229	0.311	0.188	0.615	0.657	0.628	0.665	0.692	0.245	0.215	0.193	0.229	0.245
Calu-6	–	–	–	–	–	–	–	–	–	–	0.926	0.903	0.919	0.975	0.915	–	–	–	–	–
SW 900	0.189	0.167	0.15	0.169	0.17	0.629	0.539	0.424	0.428	0.167	–	–	–	–	–	0.366	–	–	0.433	0.483
HOP-62	0.933	0.754	0.533	0.361	0.173	0.879	0.873	0.493	0.219	0.188	0.923	0.961	1.07	1.03	1.02	0.184	0.206	–	0.188	0.241
H3255	1.07	0.928	0.581	0.601	0.236	0.595	0.571	0.462	0.397	0.338	1.06	0.989	0.945	0.816	1.11	0.796	–	0.57	0.563	0.491
NCI-H1734	0.208	0.169	0.173	0.149	0.15	0.591	0.517	0.404	0.492	0.278	0.803	0.853	–	1.09	0.889	0.482	0.535	–	0.515	0.499
SK-MES-1	0.498	0.368	0.277	0.231	0.207	0.647	0.582	0.46	0.447	0.266	0.937	1.18	1.09	1.02	1.06	0.37	0.336	0.369	0.38	0.369
NCI-H1792	0.399	0.348	0.294	0.286	0.238	0.565	0.62	0.745	0.618	0.51	0.37	0.495	0.391	–	0.486	0.439	0.648	0.645	0.497	0.511
EKVX	0.864	0.767	0.331	0.446	0.351	0.667	0.532	0.379	0.473	0.426	0.911	0.926	0.921	0.729	0.883	0.291	–	–	0.303	0.301
EPLC-272H	0.222	0.22	0.251	0.129	0.117	0.319	0.285	0.192	0.129	0.183	1.54	1.12	–	1.31	1.23	0.382	0.345	–	0.333	0.336
LK-2	0.159	0.183	0.223	0.161	0.191	0.197	0.205	0.164	0.18	0.186	0.365	0.333	–	0.474	0.504	0.225	0.24	0.192	0.275	0.375
CAL-12T	0.725	0.29	0.344	0.309	0.239	0.543	0.333	0.224	0.353	0.193	0.821	0.787	0.809	1.05	0.809	–	–	–	–	–
NCI-H322M	0.749	0.634	0.471	0.473	0.404	0.504	0.483	0.467	0.41	0.383	1.01	0.993	0.874	0.819	0.862	0.683	0.708	0.649	0.648	0.686
NCI-H1650	0.209	0.2	0.176	0.174	0.211	0.632	0.604	0.534	0.451	0.204	–	–	–	–	–	0.419	0.427	0.378	0.385	0.45
NCI-H2342	0.728	0.582	–	0.587	0.604	0.56	0.552	–	0.471	0.577	–	–	–	–	–	0.685	0.702	0.674	0.693	0.623
SW 1573	0.181	0.237	0.13	0.157	0.163	0.474	0.486	0.344	0.338	0.285	0.894	0.793	0.914	0.787	0.965	0.477	0.498	0.514	0.542	0.458
NCI-H2405	0.529	0.591	0.395	0.338	0.306	0.651	0.621	0.488	0.43	0.412	0.871	0.912	0.783	0.954	0.816	0.739	0.676	0.653	0.725	0.734
LCLC-103H	0.769	0.761	0.735	0.767	0.668	0.463	0.44	0.379	0.334	0.421	1.13	1.13	1.07	1.13	1.11	0.724	0.732	0.684	0.696	0.732
HCC-44	1.03	0.907	0.931	0.553	0.193	0.487	0.249	0.424	0.311	0.183	0.577	0.637	0.651	0.593	0.604	0.877	0.938	0.95	0.962	0.838
RERF-LC-KJ	1.21	1.19	1.14	1.09	0.736	0.493	0.471	0.414	0.459	0.372	0.886	0.935	0.929	0.813	0.84	0.736	0.633	0.708	0.666	0.687

Cell Line	relative viability (Trametinib + Luminespib; first compound 0.0025 µM)	relative viability (Trametinib + Luminespib; first compound 0.007906 µM)	relative viability (Trametinib + Luminespib; first compound 0.025 µM)	relative viability (Trametinib + Luminespib; first compound 0.07906 µM)	relative viability (Trametinib + Luminespib; first compound 0.25 µM)	relative viability (Trametinib + OSI-027; first compound 0.0025 µM)	relative viability (Trametinib + OSI-027; first compound 0.007906 µM)	relative viability (Trametinib + OSI-027; first compound 0.025 µM)	relative viability (Trametinib + OSI-027; first compound 0.07906 µM)	relative viability (Trametinib + OSI-027; first compound 0.25 µM)	relative viability ([1]; first compound 0.02 µM)	relative viability ([1]; first compound 0.06325 µM)	relative viability ([1]; first compound 0.2 µM)	relative viability ([1]; first compound 0.6325 µM)	relative viability ([1]; first compound 2 µM)	relative viability ([2]; first compound 0.02 µM)	relative viability ([2]; first compound 0.06325 µM)	relative viability ([2]; first compound 0.2 µM)	relative viability ([2]; first compound 0.6325 µM)	relative viability ([2]; first compound 2 µM)
NCI-H1975	0.207	0.177	0.155	0.183	0.171	0.643	0.422	0.402	0.299	0.196	0.921	1.04	0.982	0.694	0.661	0.396	0.277	0.356	0.363	0.347
IA-LM	–	–	–	–	–	–	–	–	–	–	0.85	0.668	0.477	0.762	0.771	–	–	–	–	–
LCLC-97TM1	0.802	0.493	0.291	0.226	0.234	0.346	0.379	0.268	0.272	0.271	0.164	–	–	0.203	0.179	–	0.189	0.205	0.208	0.241
NCI-H520	0.252	0.2	0.259	0.253	0.218	0.225	0.272	0.246	0.248	0.261	0.87	0.808	0.963	0.96	1.02	0.46	0.492	0.536	0.473	0.52
A-427	0.805	0.871	0.691	0.661	0.297	0.373	0.287	0.212	0.242	0.143	1.06	1.07	–	1.15	1.12	0.632	0.479	–	0.557	0.651
ABC-1	0.665	0.819	0.446	0.307	0.439	0.403	0.439	0.28	0.266	0.225	0.797	0.704	0.604	0.729	0.712	1.3	0.941	0.829	0.909	1.15
NCI-H460	0.0314	0.0296	0.0277	0.0263	0.0269	0.557	0.332	0.244	0.141	0.0441	0.8	0.838	0.789	–	0.906	0.487	0.44	0.414	0.445	0.483
EBC-1	–	–	–	–	–	–	–	–	–	–	1.03	0.873	0.723	0.922	0.971	–	–	–	–	–
ChaGo-K-1	0.729	0.515	0.511	0.646	0.464	0.558	0.488	0.51	0.423	0.403	–	–	–	–	–	0.519	0.515	0.5	0.534	0.476
NCI-H2228	0.15	0.0886	0.134	0.0863	0.112	0.498	0.427	0.222	0.237	0.192	0.53	0.463	–	0.603	0.759	–	–	–	–	–
A549	–	–	–	–	–	–	–	–	–	–	0.596	0.512	–	0.543	0.586	0.332	0.207	0.133	0.225	0.324
NCI-H1563	0.515	0.481	0.505	0.476	0.569	0.745	0.819	0.772	0.884	0.623	1.24	1.17	1.11	1.17	1.26	–	–	–	–	–
NCI-H1703	–	–	–	–	–	–	–	–	–	–	0.489	0.848	0.581	0.94	1.02	–	–	–	–	–
NCI-H1299	–	–	–	–	–	–	–	–	–	–	1.07	1.03	1.06	1.06	1.05	–	–	–	–	–
HCC-366	–	–	–	–	–	0.684	0.763	0.371	0.414	0.201	0.616	0.566	0.656	0.575	0.51	0.304	0.335	0.349	0.369	0.342
NCI-H522	1.04	0.917	1	0.844	0.574	0.592	0.653	0.595	1.57	0.587	–	–	–	–	–	0.598	0.644	0.716	0.637	0.695
NCI-H1648	–	–	–	–	–	–	0.28	0.273	0.279	0.272	–	–	–	–	–	0.5	0.453	0.496	0.448	0.327
NCI-H2170	0.58	0.749	0.399	0.559	0.431	0.754	0.659	0.392	0.613	0.616	–	–	–	–	–	0.481	0.487	0.458	0.447	0.411
NCI-H1623	0.593	0.406	0.315	0.287	0.344	0.361	0.35	0.326	0.28	0.311	–	–	–	–	–	–	–	–	–	–
HCC-78	–	–	–	–	–	0.366	0.361	0.313	0.343	0.333	0.444	0.51	0.233	0.423	0.487	0.557	0.588	0.652	0.614	0.65
